Measurements published in patent US20240317777A1, “NOVEL MACROCYCLIC AMINOPYRAZOLE COMPOUNDS AS CDK2 INHIBITORS” (Accutar Biotechnology Inc., priority 2023, published 2024).
Where two headings read alike, the source gives them in different places.

Tests used:
CDK1-CYCLIN B = CDK1-CYCLIN B (Homo sapiens, UniProt P06493); experiment: CDK protein kinase inhibition by ADP-Glo assay, CDK1-CYCLIN B; type: biochemical; conditions: for IC50: ADP-Glo, 1000 μM ATP, read-out: CDK1-CYCLINB, IC50; for CDK2 fold selectivity over CDK1 / CDK2 Fold selectivity, CDK1: CDK2 versus CDK1; for CDK2 fold selectivity over CDK1: Table 8
Description: (§1) CDK Protein Kinase Inhibition by ADP-Glo Assay
(§2) This ADP-Glo assay measures ADP formed from a kinase reaction and indirectly quantifies the phosphorylation of peptide substrates by the CDK/cyclin protein complexes. The typical assays were carried out in Nanosyn by combining kinase/cyclin complexes, substrates, compounds, and cofactors (ATP and Mg2+) in a well of a 384-well microtiter plate (Corning 3824) and incubating at 22° C. (Table 1). At the end of the incubation, the reaction is quenched, and conversion is detected by luminescence using the Promega ADP-Glo™ Kinase Assay kit (catalog #V9102).
(§3) Final assay buffer mixture contains: • 100 mM HEPES, pH 7.5 • 0.1% BSA • 0.01% Triton X-100 • 1 mM DTT • 5 mM MgCl2 • 10 μM Sodium Orthovanadate • 100 μM Beta-Glycerophosphate • 1000 μM Ultra Pure ATP (provided in the Promega ADP-Glo™ Kinase Assay kit) • 1% DMSO (from compound)
(§4) Upon completion, 5 μL of the ADP Glo reagent was added to each well and the plate was further incubated at room temperature for 45 minutes. 10 uL of the Kinase Detection Reagent was subsequently added to each well. After 10 minutes of incubation, the plate was read and analyzed on the BioTek Synergy microplate reader using BioTek Gen5 software.

CDK9-CYCLIN T1 = CDK9-CYCLIN T1 (Homo sapiens, UniProt P50750); experiment: CDK protein kinase inhibition by ADP-Glo assay, CDK9-CYCLIN T1; type: biochemical; conditions: for IC50: ADP-Glo, 1000 μM ATP, read-out: CDK9-CYCLINT1, IC50; for CDK2 Fold Sensitivity, CDK9 / CDK2 Fold selectivity, CDK9: CDK2 versus CDK9; for CDK2 Fold Sensitivity, CDK9: Table 8
Description: as §1, §2, §3, §4

CCNE1-normal SKOV3 cells = experiment: Cell growth inhibition of CCNE1-normal SKOV3 cells (CellTiter-Glo); type: cell-based; conditions: Homo sapiens, SK-OV-3, 144 h, 6 days
Summary of the method: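 Growth was measured by CellTiter-Glo luminescence after 6 days' compound exposure at 37 °C. Cells were plated one day before dosing at 1000 per well in medium with 10% FBS, and compounds were diluted from DMSO stocks.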

CDK6-CYCLIN D3 = CDK6-CYCLIN D3 (Homo sapiens, UniProt Q00534); experiment: CDK protein kinase inhibition by ADP-Glo assay, CDK6-CYCLIN D3; type: biochemical; conditions: for IC50: ADP-Glo, 1000 μM ATP, read-out: CDK6-CYCLIND3, IC50; for CDK2 Fold Sensitivity, CDK6 / CDK2 Fold selectivity, CDK6: CDK2 versus CDK6; for CDK2 Fold Sensitivity, CDK6: Table 8
Description: as §1, §2, §3, §4

CDK2-CYCLIN E1 = CDK2-CYCLIN E1 (Homo sapiens, UniProt P24941); experiment: CDK protein kinase inhibition by ADP-Glo assay, CDK2-CYCLIN E1; type: biochemical; conditions: ADP-Glo, 1000 μM ATP, read-out: CDK2-CYCLINE, IC50
Description: as §1, §2, §3, §4

[1] = test system: CCNE1-amplified OVCAR3 cells; experiment: Cell growth inhibition of CCNE1-amplified OVCAR3 cells (CellTiter-Glo); type: cell-based; conditions: Homo sapiens, OVCAR-3, 144 h, 6 days
Summary of the method: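 Growth read-out was CellTiter-Glo luminescence, taken after 10 min at room temperature at the end of a 6-day compound exposure at 37 °C. Compounds were diluted from DMSO stocks across various concentrations.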

CDK4-CYCLIN D1 = CDK4-CYCLIN D1 (Homo sapiens, UniProt P11802); experiment: CDK protein kinase inhibition by ADP-Glo assay, CDK4-CYCLIN D1; type: biochemical; conditions: for IC50: ADP-Glo, 1000 μM ATP, read-out: CDK4-CYCLIND1, IC50; for CDK2 Fold Sensitivity, CDK4 / CDK2 Fold selectivity, CDK4: CDK2 versus CDK4; for CDK2 Fold Sensitivity, CDK4: Table 8
Description: as §1, §2, §3, §4

[2] = test system: Phospho-Rb (Ser807/811) in OVCAR3 cells; experiment: Phospho-Rb expression inhibition in OVCAR3 cells quantified by In Cell Western; type: cell-based; conditions: Homo sapiens, OVCAR-3, 24 hours, read-out: OVCAR-3 pRb IC50
Summary of the method: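 In-cell western: after 24 h compound exposure at 37° C, fixed OVCAR3 cells co-stained for pRb Ser807/811 (800 nm channel) and total Rb (680 nm channel), imaged by LI-COR Odyssey.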

Chain of CDK1-CYCLIN B (P06493 whole entry): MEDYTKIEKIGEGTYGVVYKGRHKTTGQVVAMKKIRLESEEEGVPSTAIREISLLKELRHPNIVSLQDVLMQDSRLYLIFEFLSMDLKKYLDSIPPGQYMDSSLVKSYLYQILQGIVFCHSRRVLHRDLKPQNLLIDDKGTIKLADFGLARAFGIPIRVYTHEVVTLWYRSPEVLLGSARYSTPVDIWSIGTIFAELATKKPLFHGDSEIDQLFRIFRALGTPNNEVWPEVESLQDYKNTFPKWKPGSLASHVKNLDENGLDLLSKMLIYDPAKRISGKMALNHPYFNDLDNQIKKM
Chain of CDK1-CYCLIN B (P14635 whole entry partner): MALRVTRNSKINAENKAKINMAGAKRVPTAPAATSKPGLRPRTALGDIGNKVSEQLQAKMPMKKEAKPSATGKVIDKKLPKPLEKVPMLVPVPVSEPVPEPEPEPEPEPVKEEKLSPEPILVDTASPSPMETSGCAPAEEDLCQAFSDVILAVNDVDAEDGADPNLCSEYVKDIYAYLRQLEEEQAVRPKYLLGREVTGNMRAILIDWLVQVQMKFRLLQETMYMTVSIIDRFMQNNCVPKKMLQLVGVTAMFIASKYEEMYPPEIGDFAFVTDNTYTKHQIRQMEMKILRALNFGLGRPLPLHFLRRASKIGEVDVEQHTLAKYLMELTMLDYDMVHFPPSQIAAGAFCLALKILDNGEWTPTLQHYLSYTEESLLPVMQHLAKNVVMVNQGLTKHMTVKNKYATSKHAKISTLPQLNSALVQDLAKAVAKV
Chain of CDK4-CYCLIN D1 (P11802 whole entry): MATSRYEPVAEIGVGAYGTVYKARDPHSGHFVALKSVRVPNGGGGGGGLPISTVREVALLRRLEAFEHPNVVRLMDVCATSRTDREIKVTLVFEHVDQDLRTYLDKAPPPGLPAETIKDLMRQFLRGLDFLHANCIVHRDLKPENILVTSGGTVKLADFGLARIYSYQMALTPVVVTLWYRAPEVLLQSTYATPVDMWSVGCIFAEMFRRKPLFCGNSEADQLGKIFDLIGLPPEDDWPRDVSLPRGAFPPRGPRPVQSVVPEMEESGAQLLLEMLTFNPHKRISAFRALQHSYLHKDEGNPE
Chain of CDK4-CYCLIN D1 (P24385 whole entry partner): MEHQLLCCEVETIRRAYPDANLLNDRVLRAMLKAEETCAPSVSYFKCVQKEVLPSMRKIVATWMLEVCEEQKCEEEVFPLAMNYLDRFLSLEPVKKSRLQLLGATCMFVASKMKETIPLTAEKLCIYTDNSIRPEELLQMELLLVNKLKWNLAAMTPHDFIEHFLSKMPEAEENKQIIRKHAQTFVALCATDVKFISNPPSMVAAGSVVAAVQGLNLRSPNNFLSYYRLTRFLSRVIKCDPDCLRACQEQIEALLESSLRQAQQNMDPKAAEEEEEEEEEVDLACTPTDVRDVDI
Chain of CDK6-CYCLIN D3 (Q00534 whole entry): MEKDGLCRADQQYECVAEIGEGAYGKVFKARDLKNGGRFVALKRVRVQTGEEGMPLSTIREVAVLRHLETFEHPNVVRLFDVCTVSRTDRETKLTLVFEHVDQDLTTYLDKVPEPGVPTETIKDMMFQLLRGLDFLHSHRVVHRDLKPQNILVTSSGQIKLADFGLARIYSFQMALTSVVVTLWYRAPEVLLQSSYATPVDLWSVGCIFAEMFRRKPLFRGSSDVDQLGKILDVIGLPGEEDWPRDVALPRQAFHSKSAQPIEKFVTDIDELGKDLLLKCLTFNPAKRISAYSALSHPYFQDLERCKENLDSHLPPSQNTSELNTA
Chain of CDK6-CYCLIN D3 (P30281 whole entry partner): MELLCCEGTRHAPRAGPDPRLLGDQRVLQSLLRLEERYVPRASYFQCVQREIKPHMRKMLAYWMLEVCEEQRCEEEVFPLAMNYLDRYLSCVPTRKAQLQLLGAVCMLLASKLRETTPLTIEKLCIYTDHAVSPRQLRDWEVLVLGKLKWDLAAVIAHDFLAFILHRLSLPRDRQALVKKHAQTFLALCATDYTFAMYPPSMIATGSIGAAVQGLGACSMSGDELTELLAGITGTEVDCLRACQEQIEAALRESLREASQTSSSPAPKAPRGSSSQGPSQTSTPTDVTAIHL
Chain of CDK9-CYCLIN T1 (P50750 whole entry): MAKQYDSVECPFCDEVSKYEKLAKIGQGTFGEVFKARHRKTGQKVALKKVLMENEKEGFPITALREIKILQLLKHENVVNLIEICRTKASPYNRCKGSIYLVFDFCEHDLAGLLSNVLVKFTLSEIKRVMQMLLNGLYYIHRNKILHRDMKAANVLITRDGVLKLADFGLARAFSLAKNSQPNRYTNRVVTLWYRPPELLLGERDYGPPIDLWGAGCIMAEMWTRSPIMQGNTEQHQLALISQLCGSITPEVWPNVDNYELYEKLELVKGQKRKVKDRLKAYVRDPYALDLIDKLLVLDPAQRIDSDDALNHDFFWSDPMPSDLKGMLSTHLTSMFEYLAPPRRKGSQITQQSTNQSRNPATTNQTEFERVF
Chain of CDK9-CYCLIN T1 (O60563 whole entry partner): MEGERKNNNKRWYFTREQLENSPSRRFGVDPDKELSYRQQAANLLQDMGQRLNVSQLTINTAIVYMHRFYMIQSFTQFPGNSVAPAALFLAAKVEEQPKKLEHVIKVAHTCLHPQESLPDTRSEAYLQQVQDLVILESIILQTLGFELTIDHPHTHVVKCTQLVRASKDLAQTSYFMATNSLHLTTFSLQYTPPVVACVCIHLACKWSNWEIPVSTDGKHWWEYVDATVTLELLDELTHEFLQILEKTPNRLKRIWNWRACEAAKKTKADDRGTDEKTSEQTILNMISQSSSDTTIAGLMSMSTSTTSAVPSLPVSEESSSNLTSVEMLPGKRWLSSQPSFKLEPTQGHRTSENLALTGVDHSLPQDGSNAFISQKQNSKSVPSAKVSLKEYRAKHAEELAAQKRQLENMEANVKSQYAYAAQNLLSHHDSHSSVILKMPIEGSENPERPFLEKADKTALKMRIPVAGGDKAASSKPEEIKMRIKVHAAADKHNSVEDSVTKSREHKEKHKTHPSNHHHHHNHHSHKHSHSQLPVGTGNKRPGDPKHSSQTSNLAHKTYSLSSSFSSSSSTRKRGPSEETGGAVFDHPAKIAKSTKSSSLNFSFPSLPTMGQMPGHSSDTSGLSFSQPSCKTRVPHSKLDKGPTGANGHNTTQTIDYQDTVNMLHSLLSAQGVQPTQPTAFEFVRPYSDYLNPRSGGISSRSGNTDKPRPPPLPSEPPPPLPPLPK

IC50 (CDK1-CYCLIN B; Table 7)	CDK2 fold selectivity over CDK1 (CDK1-CYCLIN B)	IC50 (CDK9-CYCLIN T1; Table 7)	CDK2 Fold Sensitivity, CDK9 (CDK9-CYCLIN T1)	IC50 (CDK6-CYCLIN D3; Table 7)	CDK2 Fold Sensitivity, CDK6 (CDK6-CYCLIN D3)	IC50 (CDK2-CYCLIN E1; Table 7)	IC50 [1]	IC50 (CDK4-CYCLIN D1; Table 7)	CDK2 Fold Sensitivity, CDK4 (CDK4-CYCLIN D1)	IC50 [2]	Structure (SMILES)	IC50 (CCNE1-normal SKOV3 cells)	further results
50 to 100 nM	E (E, <20)	> 500 nM	B (B, >100 and ≤500)	> 500 nM	B (B, >100 and ≤500)	≤ 10 nM	10 to 50 nM	> 500 nM	B (B, >100 and ≤500)	10 to 50 nM	O=C1NCCCCOc2cc(cc(C(F)F)n2)Nc2cc([nH]n2)[C@H]2CC[C@H](C2)O1 [Compound 16, (1^1S,1^3R,Z)-46-(difluoromethyl)-2^1H-5,12-dioxa-3,10-diaza-4(4,2)-pyridina-2(5,3)-pyrazola-1(1,3)-cyclopentanacyclododecaphan-11-one]	> 1250 nM	
≤ 10 nM	E (E, <20)	50 to 100 nM	C (C, >50 and ≤100)	50 to 100 nM	B (B, >100 and ≤500)	≤ 10 nM	2 to 10 nM	100 to 500 nM	B (B, >100 and ≤500)	2 to 10 nM	O=C1NCCCCCc2cc(cc(C(F)F)n2)Nc2cc([nH]n2)[C@H]2CC[C@H](C2)O1 [Compound 17, (1^1S,1^3R,Z)-4^6-(difluoromethyl)-2^1H-12-oxa-3,10-diaza-4(4,2)-pyridina-2(3,5)-pyrazola-1(1,3)-cyclopentanacyclododecaphan-11-one]	250 to 1250 nM	
							10 to 50 nM			2 to 10 nM	O=C1NC23CC(COc4cc(cc(C(F)F)n4)Nc4cc([nH]n4)[C@H]4CC[C@H](C4)O1)(C2)C3 [Compound 19, (1^1S,1^3R,Z)-46-(difluoromethyl)-2^1H-5,10-dioxa-3,8-diaza-4(4,2)-pyridina-2(3,5)-pyrazola-7(1,3)-bicyclo[1.1.1]pentana-1(1,3)-cyclopentanacyclodecaphan-9-one]	> 1250 nM	IC50 (CDK1-CYCLIN B; Table 11): 50 to 100 nM; CDK2 Fold selectivity, CDK1 (CDK1-CYCLIN B; Table 12): D (D, >20 and ≤50); IC50 (CDK9-CYCLIN T1; Table 11): > 500 nM; CDK2 Fold selectivity, CDK9 (CDK9-CYCLIN T1; Table 12): A (A, ≥500); IC50 (CDK6-CYCLIN D3; Table 11): > 500 nM; CDK2 Fold selectivity, CDK6 (CDK6-CYCLIN D3; Table 12): B (B, >100 and ≤500); IC50 (CDK2-CYCLIN E1; Table 11): ≤ 10 nM; IC50 (CDK4-CYCLIN D1; Table 11): > 500 nM; CDK2 Fold selectivity, CDK4 (CDK4-CYCLIN D1; Table 12): A (A, ≥500)
							2 to 10 nM			≤ 2 nM	O=C1NCCCCC(F)(F)c2cc(ccn2)Nc2cc([nH]n2)[C@H]2CC[C@H](C2)O1 [Compound 64, (1^1S,1^3R,Z)-5,5-difluoro-2^1H-12-oxa-3,10-diaza-4(4,2)-pyridina-2(3,5)-pyrazola-1(1,3)-cyclopentanacyclododecaphan-11-one]	50 to 250 nM	IC50 (CDK1-CYCLIN B; Table 19): ≤ 10 nM; CDK2 Fold selectivity, CDK1 (CDK1-CYCLIN B; Table 20): E (E, <20); IC50 (CDK9-CYCLIN T1; Table 19): 10 to 50 nM; CDK2 Fold selectivity, CDK9 (CDK9-CYCLIN T1; Table 20): E (E, <20); IC50 (CDK6-CYCLIN D3; Table 19): 10 to 50 nM; CDK2 Fold selectivity, CDK6 (CDK6-CYCLIN D3; Table 20): D (D, >20 and ≤50); IC50 (CDK2-CYCLIN E1; Table 19): ≤ 10 nM; IC50 (CDK4-CYCLIN D1; Table 19): 10 to 50 nM; CDK2 Fold selectivity, CDK4 (CDK4-CYCLIN D1; Table 20): D (D, >20 and ≤50)
							2 to 10 nM			≤ 2 nM	O=C1NC23CC(CCCc4cc(ccn4)Nc4cc(n[nH]4)[C@H]4CC[C@H](C4)O1)(C2)C3 [Compound 96, (1^1S,1^3R,Z)-2^1H-11-oxa-3,9-diaza-4(4,2)-pyridina-2(3,5)-pyrazola-8(1,3)-bicyclo[1.1.1]pentana-1(1,3)-cyclopentanacycloundecaphan-10-one]	50 to 250 nM	IC50 (CDK1-CYCLIN B; Table 13): ≤ 10 nM; CDK2 Fold selectivity, CDK1 (CDK1-CYCLIN B; Table 14): E (E, <20); IC50 (CDK9-CYCLIN T1; Table 13): ≤ 10 nM; CDK2 Fold selectivity, CDK9 (CDK9-CYCLIN T1; Table 14): E (E, <20); IC50 (CDK6-CYCLIN D3; Table 13): 10 to 50 nM; CDK2 Fold selectivity, CDK6 (CDK6-CYCLIN D3; Table 14): E (E, <20); IC50 (CDK2-CYCLIN E1; Table 13): ≤ 10 nM; IC50 (CDK4-CYCLIN D1; Table 13): 50 to 100 nM; CDK2 Fold selectivity, CDK4 (CDK4-CYCLIN D1; Table 14): D (D, >20 and ≤50)
							10 to 50 nM			2 to 10 nM	C[C@@H]1CC23CC(C2)(C3)NC(=O)O[C@@H]2CC[C@@H](C2)c2cc([nH]n2)Nc2ccnc(c2)O1 [Compound 100, (1^1S,1^3R,6R,Z)-6-methyl-2^1H-5,11-dioxa-3,9-diaza-4(4,2)-pyridina-2(3,5)-pyrazola-8(1,3)-bicyclo[1.1.1]pentana-1(1,3)-cyclopentanacycloundecaphan-10-one]	50 to 250 nM	IC50 (CDK1-CYCLIN B; Table 17): 10 to 50 nM; CDK2 Fold selectivity, CDK1 (CDK1-CYCLIN B; Table 18): E (E, <20); IC50 (CDK9-CYCLIN T1; Table 17): 10 to 50 nM; CDK2 Fold selectivity, CDK9 (CDK9-CYCLIN T1; Table 18): D (D, >20 and ≤50); IC50 (CDK6-CYCLIN D3; Table 17): 100 to 500 nM; CDK2 Fold selectivity, CDK6 (CDK6-CYCLIN D3; Table 18): C (C, >50 and ≤100); IC50 (CDK2-CYCLIN E1; Table 17): ≤ 10 nM; IC50 (CDK4-CYCLIN D1; Table 17): 100 to 500 nM; CDK2 Fold selectivity, CDK4 (CDK4-CYCLIN D1; Table 18): C (C, >50 and ≤100)
							2 to 10 nM			≤ 2 nM	C[C@H]1CC23CC(C2)(C3)NC(=O)O[C@@H]2CC[C@@H](C2)c2cc([nH]n2)Nc2ccnc(c2)O1 [Compound 102, (1^1S,1^3R,6S,Z)-6-methyl-2^1H-5,11-dioxa-3,9-diaza-4(4,2)-pyridina-2(3,5)-pyrazola-8(1,3)-bicyclo[1.1.1]pentana-1(1,3)-cyclopentanacycloundecaphan-10-one]	50 to 250 nM	IC50 (CDK1-CYCLIN B; Table 17): ≤ 10 nM; CDK2 Fold selectivity, CDK1 (CDK1-CYCLIN B; Table 18): E (E, <20); IC50 (CDK9-CYCLIN T1; Table 17): 10 to 50 nM; CDK2 Fold selectivity, CDK9 (CDK9-CYCLIN T1; Table 18): E (E, <20); IC50 (CDK6-CYCLIN D3; Table 17): 100 to 500 nM; CDK2 Fold selectivity, CDK6 (CDK6-CYCLIN D3; Table 18): C (C, >50 and ≤100); IC50 (CDK2-CYCLIN E1; Table 17): ≤ 10 nM; IC50 (CDK4-CYCLIN D1; Table 17): 100 to 500 nM; CDK2 Fold selectivity, CDK4 (CDK4-CYCLIN D1; Table 18): C (C, >50 and ≤100)
100 to 500 nM	C (C, >50 and ≤100)	> 500 nM	B (B, >100 and ≤500)	100 to 500 nM	C (C, >50 and ≤100)	≤ 10 nM	50 to 250 nM	100 to 500 nM	D (D, >20 and ≤50)	10 to 50 nM	O=C1NCCCCOc2cccc(c2)Nc2cc([nH]n2)[C@H]2CC[C@H](C2)O1 [Compound 105, (1^1S,1^3R,Z)-2^1H-5,12-dioxa-3,10-diaza-2(5,3)-pyrazola-4(1,3)-benzena-1(1,3)-cyclopentanacyclododecaphan-11-one]	> 1250 nM	
